The target of test [1] is T1, PRMT5 (Homo sapiens, UniProt O14744).
T1 construct: purchased Viva (custom protein)
In words: PRMT5 IC50 assay in the presence of SAM as cofactor. The format is biochemical. The method, boiled down: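 Enzyme: human PRMT5. Conditions: plus SAM, plus MTA, or cofactor-free. Output: IC50 (μM); Ki via IC50/1.5 (SAM) or IC50/13.5 (MTA).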

Test [2] concerns the target T1, PRMT5. Nature of the test: PRMT5 IC50 assay with no cofactor. It is filed as biochemical. In short, it runs like this:
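Three cofactor conditions are run: SAM-bound, MTA-bound and cofactor-free enzyme. IC50 is read from each; for the SAM and MTA arms it is divided by 1.5 and 13.5 respectively to give Ki.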

The test system of a further test is HAP1 MTAP-intact. In words: SDMA in-cell western assay, HAP1 MTAP-intact cell line. The format is cell-based. The following applies: Homo sapiens. The method, boiled down:
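IC50 values come from SDMA in-cell western staining of HAP1 cells. The MTAP-intact line carries endogenous MTAP, while its MTAP-deleted counterpart lacks MTAP entirely. A selectivity ratio of at least 3 fold marks a compound as MTAP-selective.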

The target of test [3] is T1, PRMT5. In words: PRMT5 IC50 assay in the presence of MTA as cofactor. It is filed as biochemical. The note with it: for IC50: PRMT5, MTA as cofactor. In short, it runs like this:
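Potency against PRMT5 is compared across cofactor states, where IC50 equals Ki×1.5 with SAM present and Ki×13.5 with MTA present.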

A further test concerns HAP1 MTAP-deleted. Nature of the test: SDMA in-cell western assay, HAP1 MTAP-deleted cell line. The note with it: for IC50: Homo sapiens, HAP1 MTAP-deleted cell line; for MTAP Intact/Deleted Ratio: IC50 ratio HAP1 MTAP-intact / HAP1 MTAP-deleted. It is filed as cell-based. The method, boiled down:
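Readout is cellular SDMA signal by in-cell western, with IC50 values derived from it. The cells are MTAP-null HAP1, matched to an isogenic MTAP-intact HAP1 line.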

Where [4] appears, read: ratio between the Ki in the presence of SAM and the Ki in the presence of MTA.
Where [5] appears, read: ratio between Ki in the presence of SAM and Ki in the presence of MTA.

Where only a bound is given, the exact number is not on record here.

T1 sequence (O14744 whole entry): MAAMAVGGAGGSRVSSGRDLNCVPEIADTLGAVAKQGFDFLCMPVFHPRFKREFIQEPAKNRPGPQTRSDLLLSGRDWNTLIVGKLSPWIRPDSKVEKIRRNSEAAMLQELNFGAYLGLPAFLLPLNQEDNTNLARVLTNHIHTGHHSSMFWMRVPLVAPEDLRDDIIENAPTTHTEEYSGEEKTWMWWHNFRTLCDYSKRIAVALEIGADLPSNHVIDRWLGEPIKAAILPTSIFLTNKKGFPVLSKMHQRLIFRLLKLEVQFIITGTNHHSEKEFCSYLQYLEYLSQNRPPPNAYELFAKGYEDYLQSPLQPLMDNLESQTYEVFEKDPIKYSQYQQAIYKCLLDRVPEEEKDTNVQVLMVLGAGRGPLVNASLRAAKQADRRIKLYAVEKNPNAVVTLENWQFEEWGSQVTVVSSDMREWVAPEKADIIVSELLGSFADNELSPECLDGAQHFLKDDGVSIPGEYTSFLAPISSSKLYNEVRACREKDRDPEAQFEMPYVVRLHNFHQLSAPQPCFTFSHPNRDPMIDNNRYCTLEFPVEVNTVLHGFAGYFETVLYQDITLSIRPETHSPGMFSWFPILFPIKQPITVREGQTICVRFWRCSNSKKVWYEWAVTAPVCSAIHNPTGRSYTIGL
T1 sequence (Q9BQA1 whole entry partner): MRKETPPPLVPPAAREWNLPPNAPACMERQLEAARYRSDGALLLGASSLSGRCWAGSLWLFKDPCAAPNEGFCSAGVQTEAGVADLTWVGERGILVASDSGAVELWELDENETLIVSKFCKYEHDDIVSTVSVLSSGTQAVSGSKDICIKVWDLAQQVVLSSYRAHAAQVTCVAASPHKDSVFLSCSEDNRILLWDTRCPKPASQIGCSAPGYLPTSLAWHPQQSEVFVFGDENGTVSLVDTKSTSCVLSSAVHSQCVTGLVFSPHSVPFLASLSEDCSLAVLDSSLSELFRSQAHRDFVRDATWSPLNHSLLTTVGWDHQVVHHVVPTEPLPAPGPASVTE

Usually IC50 stands for the midpoint of a concentration-inhibition curve. With `Cc1ncoc1COc1ccc2c(c1C)CCN(C[C@@H](O)CNC(=O)c1cc(NC3CCC3)nc(OCCN(C)C)c1)C2` [Compound 500, 2-(cyclobutylamino)-6-[2-(dimethylamino)ethoxy]-N-[(2S)-2-hydroxy-3-{5-methyl-6-[(4-methyl-1,3-oxazol-5-yl)methoxy]-1,2,3,4-tetrahydroisoquinolin-2-yl}propyl]pyridine-4-carboxamide], the IC50 on PRMT5 [1] was 50 to 500 nM; on PRMT5 [2], 500 to 5000 nM; in the test with HAP1 MTAP-intact it was no less than 10000 nM; at PRMT5 [3], 50 to 500 nM; in the test with HAP1 MTAP-deleted it was less than 1000 nM. For the same compound, on PRMT5 [3] (setting [4]), the “SAM/MTA Ratio” value was “A (a Ki ratio greater than or equal to 10 fold between the Ki in the presence of SAM and the Ki in the presence of MTA)”. For the same compound, the “MTAP Intact/Deleted Ratio” value in the test on HAP1 MTAP-deleted is “A* (an IC50 ratio greater than or equal to 10 fold between the IC50 in the HAP1 MTAP-intact cell line and the HAP1 MTAP-deleted cell line)”.

As for `Cc1c(OCc2cnco2)ccc2c1CCN(C[C@@H](O)CNC(=O)c1cc(NC3CCN(C(=O)C(C)C)CC3)ncn1)C2` [Compound 520, N-[(2S)-2-hydroxy-3-{5-methyl-6-[(1,3-oxazol-5-yl)methoxy]-1,2,3,4-tetrahydroisoquinolin-2-yl}propyl]-6-{[1-(2-methylpropanoyl)piperidin-4-yl]amino}pyrimidine-4-carboxamide], the IC50 at PRMT5 [1] was 50 to 500 nM; against PRMT5 [2], no less than 5000 nM; in the test with HAP1 MTAP-intact, no less than 10000 nM; on PRMT5 [3], 50 to 500 nM; with HAP1 MTAP-deleted, 1000 to 10000 nM. For the same compound, on PRMT5 [3] (setting [4]), the “SAM/MTA Ratio” value is “A (a Ki ratio greater than or equal to 10 fold between the Ki in the presence of SAM and the Ki in the presence of MTA)”. Moreover, the “MTAP Intact/Deleted Ratio” value with HAP1 MTAP-deleted is “B* (an IC50 ratio greater than or equal to 3 fold but lower than 10 fold between the IC50 in the HAP1 MTAP-intact cell line and the HAP1 MTAP-deleted cell line)”.

On to `CCN1CCN(c2cc(C(=O)NC[C@H](O)CN3CCc4cc(OCc5ocnc5C)ccc4C3)cc(NC3CCC3)n2)CC1` [Compound 410, 2-(cyclobutylamino)-6-(4-ethylpiperazin-1-yl)-N-[(2S)-2-hydroxy-3-{6-[(4-methyl-1,3-oxazol-5-yl)methoxy]-1,2,3,4-tetrahydroisoquinolin-2-yl}propyl]pyridine-4-carboxamide], for which the IC50 at PRMT5 [1] is 50 to 500 nM; on PRMT5 [2] (read-out: No Co-factor IC50) it was 500 to 5000 nM; in the test on HAP1 MTAP-intact it was less than 1000 nM; at PRMT5 [3], 50 to 500 nM; with HAP1 MTAP-deleted it was less than 1000 nM. The “SAM/MTA Ratio” value at PRMT5 [3] (setting [5]) was “A (a Ki ratio greater than or equal to 10 fold between the Ki in the presence of SAM and the Ki in the presence of MTA)”. In addition, the “MTAP Intact/Deleted Ratio” value in the test with HAP1 MTAP-deleted is “B* (an IC50 ratio greater than or equal to 3 fold but lower than 10 fold between the IC50 in the HAP1 MTAP-intact cell line and the HAP1 MTAP-deleted cell line)”.

For `Cc1c(OCc2cnco2)cc(F)c2c1CCN(C[C@@H](O)CNC(=O)c1ccnc(NC3CCC3)c1)C2` [Compound 341, 2-(cyclobutylamino)-N-[(2S)-3-[8-fluoro-5-methyl-6-(oxazol-5-ylmethoxy)-3,4-dihydro-1H-isoquinolin-2-yl]-2-hydroxy-propyl]pyridine-4-carboxamide], the half-maximal inhibitory concentration (IC50) at PRMT5 [1] was 50 to 500 nM; at PRMT5 [2] (read-out: No Co-factor IC50), 500 to 5000 nM; in the test on HAP1 MTAP-intact it was no less than 10000 nM; on PRMT5 [3] it was 50 to 500 nM; in the test with HAP1 MTAP-deleted it was 1000 to 10000 nM. Further, the “SAM/MTA Ratio” value on PRMT5 [3] (setting [5]) is “A (a Ki ratio greater than or equal to 10 fold between the Ki in the presence of SAM and the Ki in the presence of MTA)”. Also, in the test on HAP1 MTAP-deleted, the “MTAP Intact/Deleted Ratio” value is “B* (an IC50 ratio greater than or equal to 3 fold but lower than 10 fold between the IC50 in the HAP1 MTAP-intact cell line and the HAP1 MTAP-deleted cell line)”.

For the compound `Cc1ncoc1COc1ccc2c(c1Br)CCN(C[C@@H](O)CNC(=O)c1cccc(NC3COC3)c1)C2` [Compound 381, (S)—N-(3-(5-bromo-6-((4-methyloxazol-5-yl)methoxy)-3,4-dihydroisoquinolin-2(1H)-yl)-2-hydroxypropyl)-3-(oxetan-3-ylamino)benzamide], the IC50 at PRMT5 [1] was 500 to 5000 nM; on PRMT5 [2] (read-out: No Co-factor IC50), no less than 5000 nM; in the test with HAP1 MTAP-intact, no less than 10000 nM; on PRMT5 [3], 500 to 5000 nM; in the test on HAP1 MTAP-deleted, no less than 10000 nM. Besides, the “SAM/MTA Ratio” value on PRMT5 [3] (setting [5]) was “A (a Ki ratio greater than or equal to 10 fold between the Ki in the presence of SAM and the Ki in the presence of MTA)”. Also, the “MTAP Intact/Deleted Ratio” value in the test on HAP1 MTAP-deleted was “C* (an IC50 ratio of less than 3 fold between the IC50 in the HAP1 MTAP-intact cell line and the HAP1 MTAP-deleted cell line)”.

Consider `CC(=O)N1CCC(Nc2cc(C(=O)NC[C@H](O)CN3CCc4c(ccc(OCc5ccnn5C)c4C)C3)ncn2)CC1` [Compound 203], for which the IC50 is 500 to 5000 nM on PRMT5 [1]; no less than 5000 nM at PRMT5 [2] (read-out: No Co-factor IC50); no less than 10000 nM in the test on HAP1 MTAP-intact; 500 to 5000 nM at PRMT5 [3]; no less than 10000 nM with HAP1 MTAP-deleted. Besides, the “SAM/MTA Ratio” value at PRMT5 [3] (setting [5]) was “A (a Ki ratio greater than or equal to 10 fold between the Ki in the presence of SAM and the Ki in the presence of MTA)”. Besides, in the test on HAP1 MTAP-deleted, the “MTAP Intact/Deleted Ratio” value was “C* (an IC50 ratio of less than 3 fold between the IC50 in the HAP1 MTAP-intact cell line and the HAP1 MTAP-deleted cell line)”.

As to `CC(=O)N1CCC(Nc2cc(C(=O)NC[C@H](O)CN3CCc4cc(OCc5cnco5)ccc4C3)ccn2)CC1` [Compound 471, 2-[(1-acetyl-4-piperidyl)amino]-N-[(2S)-2-hydroxy-3-[6-(oxazol-5-ylmethoxy)-3,4-dihydro-1H-isoquinolin-2-yl]propyl]pyridine-4-carboxamide], the IC50 at PRMT5 [1] was 50 to 500 nM; against PRMT5 [2], 500 to 5000 nM; in the test with HAP1 MTAP-intact it was 1000 to 10000 nM; on PRMT5 [3], 50 to 500 nM; in the test on HAP1 MTAP-deleted, 1000 to 10000 nM. Moreover, the “SAM/MTA Ratio” value on PRMT5 [3] (setting [4]) is “A (a Ki ratio greater than or equal to 10 fold between the Ki in the presence of SAM and the Ki in the presence of MTA)”. Also, the “MTAP Intact/Deleted Ratio” value in the test on HAP1 MTAP-deleted was “B* (an IC50 ratio greater than or equal to 3 fold but lower than 10 fold between the IC50 in the HAP1 MTAP-intact cell line and the HAP1 MTAP-deleted cell line)”.

As for `Cc1ncoc1COc1ccc2c(c1Br)CCN(C[C@@H](O)CNC(=O)c1cc(NC3CCC3)ncn1)C2` [Compound 338, (S)—N-(3-(5-bromo-6-((4-methyloxazol-5-yl)methoxy)-3,4-dihydroisoquinolin-2(1H)-yl)-2-hydroxypropyl)-6-(cyclobutylamino)pyrimidine-4-carboxamide], the IC50 on PRMT5 [1] is 500 to 5000 nM; on PRMT5 [2] (read-out: No Co-factor IC50), no less than 5000 nM; in the test on HAP1 MTAP-intact it was no less than 10000 nM; at PRMT5 [3], 500 to 5000 nM; in the test on HAP1 MTAP-deleted it was no less than 10000 nM. The “SAM/MTA Ratio” value at PRMT5 [3] (setting [5]) is “A (a Ki ratio greater than or equal to 10 fold between the Ki in the presence of SAM and the Ki in the presence of MTA)”. The “MTAP Intact/Deleted Ratio” value with HAP1 MTAP-deleted is “C* (an IC50 ratio of less than 3 fold between the IC50 in the HAP1 MTAP-intact cell line and the HAP1 MTAP-deleted cell line)”.

With `O=C(NC[C@H](O)CN1CCc2c(ccc(OCc3cnco3)c2Cl)C1)c1cc(NC2CCC2)nc(N2CCN(C(=O)C3CC3)CC2)c1` [Compound 571, (S)—N-(3-(5-chloro-6-(oxazol-5-ylmethoxy)-3N-dihydroisoquinolin-2(1H)-yl)-2-hydroxypropyl)-2-(cyclobutylamino)-6-(4-(cyclopropanecarbonyl)piperazin-1-yl)isonicotinamide], the concentration for half-maximal inhibition (IC50) on PRMT5 [1] was 50 to 500 nM; at PRMT5 [2], 500 to 5000 nM; with HAP1 MTAP-intact, no less than 10000 nM; at PRMT5 [3], 50 to 500 nM; in the test on HAP1 MTAP-deleted it was less than 1000 nM. Further, on PRMT5 [3] (setting [4]), the “SAM/MTA Ratio” value was “A (a Ki ratio greater than or equal to 10 fold between the Ki in the presence of SAM and the Ki in the presence of MTA)”. Besides, in the test on HAP1 MTAP-deleted, the “MTAP Intact/Deleted Ratio” value was “A* (an IC50 ratio greater than or equal to 10 fold between the IC50 in the HAP1 MTAP-intact cell line and the HAP1 MTAP-deleted cell line)”.

In the case of `CN1CCN(c2cc(C(=O)NC[C@H](O)CN3CCc4cc(OCc5cnco5)ccc4C3)cc(NC3CCC3)n2)CC1` [Compound 448], the IC50 on PRMT5 [1] was 50 to 500 nM; against PRMT5 [2], 500 to 5000 nM; with HAP1 MTAP-intact, less than 1000 nM; at PRMT5 [3], 50 to 500 nM; in the test with HAP1 MTAP-deleted, less than 1000 nM. For the same compound, the “SAM/MTA Ratio” value at PRMT5 [3] (setting [4]) is “A (a Ki ratio greater than or equal to 10 fold between the Ki in the presence of SAM and the Ki in the presence of MTA)”. Further, the “MTAP Intact/Deleted Ratio” value with HAP1 MTAP-deleted was “C* (an IC50 ratio of less than 3 fold between the IC50 in the HAP1 MTAP-intact cell line and the HAP1 MTAP-deleted cell line)”.

For the compound `Cc1ncoc1COc1ccc2c(c1)CCN(C[C@@H](O)CNC(=O)c1cc(NC3CCC3)nc(N3CCN(C)CC3)c1)C2` [Compound 485, 2-(cyclobutylamino)-N-[(2S)-2-hydroxy-3-{6-[(4-methyl-1,3-oxazol-5-yl)methoxy]-1,2,3,4-tetrahydroisoquinolin-2-yl}propyl]-6-(4-methylpiperazin-1-yl)pyridine-4-carboxamide], the half-maximal inhibitory concentration (IC50) at PRMT5 [1] was 50 to 500 nM; on PRMT5 [2], 500 to 5000 nM; in the test on HAP1 MTAP-intact it was less than 1000 nM; at PRMT5 [3], 50 to 500 nM; with HAP1 MTAP-deleted it was less than 1000 nM. Further, the “SAM/MTA Ratio” value at PRMT5 [3] (setting [4]) was “A (a Ki ratio greater than or equal to 10 fold between the Ki in the presence of SAM and the Ki in the presence of MTA)”. Moreover, the “MTAP Intact/Deleted Ratio” value in the test with HAP1 MTAP-deleted is “C* (an IC50 ratio of less than 3 fold between the IC50 in the HAP1 MTAP-intact cell line and the HAP1 MTAP-deleted cell line)”.

Source of the values: patent US11986471B2, “Compounds and methods of use” (Tango Therapeutics, Inc., priority 2018, dated 2024).
